This series deals with cancer cells. Kind of series: MTT cytotoxic assay of esterification products (Cytotoxicity activity). The class given is cell-based, human. The essentials: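 Cytotoxicity was read by MTT (Carmichael method, modified), with cells seeded 24 h ahead of treatment. Sixteen human cancer lines spanning bone, lung, bladder, ovary, colon, pancreas, prostate, skin, mouth, kidney, breast, liver, brain, leukemia and cervix were used. Test samples were acyl chloride esterification products of triterpenes, as mixtures or HPLC-purified compounds.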

Setting [1] is: E4A esterified with Cinnamoyl chloride (Cin = Cinnamoyl), compounds isolated with HPLC.
Setting [2] is: MTT cytotoxic assay, isolated esterification products of E4A.
[3] abbreviates: E4A esterified with Crotonoyl chloride (Cro = Crotonoyl), compounds isolated with HPLC.
Setting [4] is: E4A esterified with Acetyl chloride (Acy = Acetyl), compounds isolated with HPLC.
[5] abbreviates: E4A esterified with 2-propenoyl chloride (Ppe = Propenoyl), compounds isolated with HPLC.
[6] abbreviates: E4A esterified with Propionyl chloride (Ppi = Propionyl), compounds isolated with HPLC.
Setting [7] is: E4A esterified with benzoyl chloride (Ben = benzoyl), compounds isolated with HPLC.
[8] abbreviates: esterification products of core compound E4A with (2E)-2-pentenoyl chloride (2pe = 2-pentenoyl).
[9] abbreviates: esterification products of core compound E4A with Butyryl chloride (But = Butyryl).
Setting [10] is: esterification products of core compound E4A with Decanoyl chloride (Dec = Decanoyl).
Where [11] appears, read: esterification products of core compound E4A with Isobutyryl chloride (Iso = Isobutyryl).
The mark [12] stands for this setting: esterification products of core compound E4A with Myristoyl chloride (Myr = Myristoyl).
The mark [13] stands for this setting: esterification products of core compound E4A with Octanoyl chloride (Oct = Octanoyl).
Where [14] appears, read: esterification products isolated with HPLC, graded strong / moderate / weak.

Take `CC1(C)CC2C3=CCC4C5(C)CCC(O)C(C)(CO)C5CCC4(C)C3(C)CC(O)C2(COC(=O)C=Cc2ccccc2)C(O)C1O` (stereo not drawn) [Compound J2]: under setting [1], the Cytotoxicity activity result is “moderate”.
Consider `C=CCCC(=O)OCC1(C)C(O)CCC2(C)C1CCC1(C)C2CC=C2C3CC(C)(C)C(O)C(OC(=O)CCC=C)C3(COC(=O)CCC=C)C(OC(=O)CCC=C)CC21C` (stereo not drawn) [Compound C12], for which, under setting [2], the Cytotoxicity activity result is reported as “weak”.
Consider `CC=CC(=O)OCC1(C)C(O)CCC2(C)C1CCC1(C)C2CC=C2C3CC(C)(C)C(O)C(O)C3(COC(=O)C=CC)C(O)CC21C` (stereo not drawn) [Compound I3], for which the Cytotoxicity activity result under setting [3] is “strong”.
For `CCCCCC(=O)OCC12C(OC(=O)CCCCC)CC3(C)C(=CCC4C5(C)CCC(O)C(C)(CO)C5CCC43C)C1CC(C)(C)C(O)C2O` (stereo not drawn) [Compound D28], the Cytotoxicity activity result under setting [2] is “moderate”.
As for `C=CCCC(=O)OCC1(C)C(O)CCC2(C)C1CCC1(C)C2CC=C2C3CC(C)(C)C(O)C(O)C3(CO)C(O)CC21C` (stereo not drawn) [Compound C1], under setting [2], the Cytotoxicity activity entry is “moderate”.
As for `CC=CC(=O)OCC1(C)C(O)CCC2(C)C1CCC1(C)C2CC=C2C3CC(C)(C)C(O)C(OC(=O)C=CC)C3(CO)C(O)CC21C` (stereo not drawn) [Compound I30], under setting [3], the Cytotoxicity activity result is listed as “moderate”.
Take `CCC(CC)C(=O)OCC1(C)C(O)CCC2(C)C1CCC1(C)C2CC=C2C3CC(C)(C)C(OC(=O)C(CC)CC)C(OC(=O)C(CC)CC)C3(COC(=O)C(CC)CC)C(OC(=O)C(CC)CC)CC21C` (stereo not drawn) [Compound E16]: the Cytotoxicity activity entry under setting [2] was “weak”.
For the molecule `CCC(CC)C(=O)OCC1(C)C(OC(=O)C(CC)CC)CCC2(C)C1CCC1(C)C2CC=C2C3CC(C)(C)C(OC(=O)C(CC)CC)C(O)C3(COC(=O)C(CC)CC)C(O)CC21C` (stereo not drawn) [Compound E11], the Cytotoxicity activity entry under setting [2] is listed as “weak”.
Turning to `CC(=O)OCC1(C)C(OC(C)=O)CCC2(C)C1CCC1(C)C2CC=C2C3CC(C)(C)C(O)C(O)C3(COC(C)=O)C(O)CC21C` (stereo not drawn) [Compound H6], the Cytotoxicity activity result under setting [4] is “moderate”.
Regarding `CCC(CC)C(=O)OCC12C(O)CC3(C)C(=CCC4C5(C)CCC(O)C(C)(CO)C5CCC43C)C1CC(C)(C)C(OC(=O)C(CC)CC)C2O` (stereo not drawn) [Compound E25], the Cytotoxicity activity result under setting [2] was “moderate”.
Take `C=CCCC(=O)OCC1(C)C(O)CCC2(C)C1CCC1(C)C2CC=C2C3CC(C)(C)C(O)C(O)C3(COC(=O)CCC=C)C(OC(=O)CCC=C)CC21C` (stereo not drawn) [Compound C7]: the Cytotoxicity activity entry under setting [2] was “moderate”.
For the molecule `CC=CC(=O)OCC1(C)C(OC(=O)C=CC)CCC2(C)C1CCC1(C)C2CC=C2C3CC(C)(C)C(OC(=O)C=CC)C(OC(=O)C=CC)C3(COC(=O)C=CC)C(OC(=O)C=CC)CC21C` (stereo not drawn) [Compound I19], under setting [3], the Cytotoxicity activity result is “none”.
Turning to `CC1(C)CC2C3=CCC4C5(C)CCC(OC(=O)c6ccccc6)C(C)(COC(=O)c6ccccc6)C5CCC4(C)C3(C)CC(OC(=O)c3ccccc3)C2(COC(=O)c2ccccc2)C(O)C1OC(=O)c1ccccc1` (stereo not drawn) [Compound K17], the Cytotoxicity activity entry is listed as “weak” under setting [5]; “weak” under setting [6]; “weak” under setting [7]; “weak” under setting [8]; “weak” under setting [9]; “weak” under setting [10]. In addition, the Cytotoxicity activity result is on record as “weak” under setting [11], “weak” under setting [12] and “weak” under setting [13].
`CC=CC(=O)OCC1(C)C(O)CCC2(C)C1CCC1(C)C2CC=C2C3CC(C)(C)C(O)C(O)C3(CO)C(OC(=O)C=CC)CC21C` (stereo not drawn) [Compound I32]: the Cytotoxicity activity entry under setting [3] is recorded as “moderate”.
In the case of `CC(=O)OCC1(C)C(O)CCC2(C)C1CCC1(C)C2CC=C2C3CC(C)(C)C(O)C(O)C3(COC(C)=O)C(OC(C)=O)CC21C` (stereo not drawn) [Compound H7], the Cytotoxicity activity entry under setting [4] is “moderate”.
As for `CC1(C)CC2C3=CCC4C5(C)CCC(O)C(C)(COC(=O)C=Cc6ccccc6)C5CCC4(C)C3(C)CC(OC(=O)C=Cc3ccccc3)C2(COC(=O)C=Cc2ccccc2)C(OC(=O)C=Cc2ccccc2)C1OC(=O)C=Cc1ccccc1` (stereo not drawn) [Compound J16], the Cytotoxicity activity result under setting [1] is “weak”.
In the case of `CC=CC(=O)OCC12C(O)CC3(C)C(=CCC4C5(C)CCC(O)C(C)(CO)C5CCC43C)C1CC(C)(C)C(O)C2OC(=O)C=CC` (stereo not drawn) [Compound I26], the Cytotoxicity activity entry under setting [3] is “moderate”.
`CC(C)=CC(=O)OCC1(C)C(O)CCC2(C)C1CCC1(C)C2CC=C2C3CC(C)(C)C(O)C(OC(=O)C=C(C)C)C3(CO)C(O)CC21C` (stereo not drawn) [Compound B30]: the Cytotoxicity activity entry under setting [2] was “moderate”.
`C=CCCC(=O)OC1C(OC(=O)CCC=C)C2(COC(=O)C(C)=CC)C(O)CC3(C)C(=CCC4C5(C)CCC(O)C(C)(COC(=O)C(C)=CC)C5CCC43C)C2CC1(C)C` (stereo not drawn) [Tig—R—Pen—1]: the Cytotoxicity activity result under setting [14] was “weak”.
As for `CC1(C)CC2C3=CCC4C5(C)CCC(O)C(C)(CO)C5CCC4(C)C3(C)CC(OC(=O)c3ccccc3)C2(COC(=O)c2ccccc2)C(O)C1O` (stereo not drawn) [Compound K28], the Cytotoxicity activity entry is, setting by setting: under setting [5], “moderate”; under setting [6], “moderate”; under setting [7], “moderate”; under setting [8], “moderate”; under setting [9], “moderate”; under setting [10], “moderate”. Moreover, the Cytotoxicity activity result is listed as “moderate” under setting [11], “moderate” under setting [12] and “moderate” under setting [13].
With `CC=C(C)C(=O)OCC1(C)C(OC(=O)C(C)=CC)CCC2(C)C1CCC1(C)C2CC=C2C3CC(C)(C)C(O)C(O)C3(COC(=O)C(C)=CC)C(O)CC21C` (stereo not drawn) [Compound A6], under setting [2], the Cytotoxicity activity entry is listed as “moderate”.
Take `CC1(C)CC2C3=CCC4C5(C)CCC(OC(=O)C=Cc6ccccc6)C(C)(COC(=O)C=Cc6ccccc6)C5CCC4(C)C3(C)CC(O)C2(CO)C(O)C1O` (stereo not drawn) [Compound J31]: under setting [1], the Cytotoxicity activity result was “moderate”.
Regarding `CC=C(C)C(=O)OCC1(C)C(O)CCC2(C)C1CCC1(C)C2CC=C2C3CC(C)(C)C(OC(=O)C=C(C)C)C(O)C3(COC(=O)C=C(C)C)C(O)CC21C` (stereo not drawn) [Tig—Sen—2], the Cytotoxicity activity entry (esterification products of E4A—Tig—N with senecioyl chloride) is on record as “moderate”.
For `CC=C(C)C(=O)OCC1(C)C(OC(=O)C(C)=CC)CCC2(C)C1CCC1(C)C2CC=C2C3CC(C)(C)C(O)C(OC(=O)C(C)=CC)C3(COC(=O)C(C)=CC)C(O)CC21C` (stereo not drawn) [Compound A9], the Cytotoxicity activity result under setting [2] is reported as “weak”.
With `CC=CC(=O)OCC1(C)C(OC(=O)C=CC)CCC2(C)C1CCC1(C)C2CC=C2C3CC(C)(C)C(O)C(OC(=O)C=CC)C3(COC(=O)C=CC)C(O)CC21C` (stereo not drawn) [Compound I9], the Cytotoxicity activity entry under setting [3] is reported as “weak”.
With `CCC(CC)C(=O)OCC1(C)C(O)CCC2(C)C1CCC1(C)C2CC=C2C3CC(C)(C)C(O)C(OC(=O)C(CC)CC)C3(CO)C(O)CC21C` (stereo not drawn) [Compound E30], the Cytotoxicity activity entry under setting [2] is listed as “moderate”.
Consider `CC=C(C)C(=O)OCC1(C)C(O)CCC2(C)C1CCC1(C)C2CC=C2C3CC(C)(C)C(OC(=O)C(CC)CC)C(OC(=O)C(CC)CC)C3(COC(=O)C(C)=CC)C(O)CC21C` (stereo not drawn) [Tig—R—Eth—1], for which the Cytotoxicity activity result under setting [14] was “weak”.
As for `CC1(C)CC2C3=CCC4C5(C)CCC(O)C(C)(CO)C5CCC4(C)C3(C)CC(O)C2(CO)C(OC(=O)c2ccccc2)C1OC(=O)c1ccccc1` (stereo not drawn) [Compound K24], the Cytotoxicity activity entry is recorded as “moderate” under setting [5]; “moderate” under setting [6]; “moderate” under setting [7]; “moderate” under setting [8]; “moderate” under setting [9]; “moderate” under setting [10]. Moreover, the Cytotoxicity activity entry under setting [11] is “moderate”, the Cytotoxicity activity entry under setting [12] is given as “moderate” and the Cytotoxicity activity result under setting [13] is listed as “moderate”.
On to `CC1(C)CC2C3=CCC4C5(C)CCC(O)C(C)(COC(=O)c6ccccc6)C5CCC4(C)C3(C)CC(O)C2(CO)C(O)C1OC(=O)c1ccccc1` (stereo not drawn) [Compound K29], for which the Cytotoxicity activity result by setting is: under setting [5], “moderate”; under setting [6], “moderate”; under setting [7], “moderate”; under setting [8], “moderate”; under setting [9], “moderate”; under setting [10], “moderate”. Also, the Cytotoxicity activity result is listed as “moderate” under setting [11], “moderate” under setting [12] and “moderate” under setting [13].
On to `CC=C(C)C(=O)OCC1(C)C(O)CCC2(C)C1CCC1(C)C2CC=C2C3CC(C)(C)C(OC(=O)C(CC)CC)C(O)C3(COC(=O)C(CC)CC)C(O)CC21C` (stereo not drawn) [Tig—Eth—2], for which, under setting [14], the Cytotoxicity activity result is listed as “moderate”.
On to `CC1(C)CC2C3=CCC4C5(C)CCC(O)C(C)(COC(=O)c6ccccc6)C5CCC4(C)C3(C)CC(O)C2(CO)C(OC(=O)c2ccccc2)C1O` (stereo not drawn) [Compound K30], for which the Cytotoxicity activity result under setting [5] is “moderate”; the Cytotoxicity activity entry under setting [6] is recorded as “moderate”; the Cytotoxicity activity entry under setting [7] was “moderate”; the Cytotoxicity activity entry under setting [8] is listed as “moderate”; the Cytotoxicity activity result under setting [9] is on record as “moderate”; the Cytotoxicity activity result under setting [10] was “moderate”. Also, the Cytotoxicity activity result is on record as “moderate” under setting [11], “moderate” under setting [12] and “moderate” under setting [13].
In the case of `CC1(C)CC2C3=CCC4C5(C)CCC(O)C(C)(COC(=O)C=Cc6ccccc6)C5CCC4(C)C3(C)CC(OC(=O)C=Cc3ccccc3)C2(COC(=O)C=Cc2ccccc2)C(O)C1OC(=O)C=Cc1ccccc1` (stereo not drawn) [Compound J13], the Cytotoxicity activity result under setting [1] was “weak”.

The values are drawn from US20230340012A1, “NATURAL AND SYNTHETIC COMPOUNDS FOR TREATING CANCER AND OTHER DISEASES” (PACIFIC ARROW LIMITED, priority 2009, published 2023).
